Where two headings read alike, the source gives them in different places.
Tests used:
Format in all cases: cell-based, human
NCI-H441 = assay: NCI-H441/PBMC co-culture: cancer cell count; conditions: Table 9
Method: (§1) For the co-culture assay, cancer cells were plated on transparent flat bottom polystyrene plates and allowed to attach overnight. On the next day, serially diluted (1:4) test articles were formulated at 3× starting concentration in complete RPMI media and added onto each well. Human PBMCs were thawed and resuspended in RPMI supplemented with 10% heat-inactivated fetal bovine serum from Hyclone, 1% Penicillin/Streptomycin and 2 mmol/L-glutamax. PBMCs were then added into the same well at a final ratio of PBMCs:cancer cells =30:1. Plates were incubated for 2 or 3 days at 37° C. with 5% CO2 in a cell culture incubator.
(§2) On the day of sample collection, cell culture supernatants were collected and stored at −80° C. until cytokine release analyses were performed. […] After incubation on ice for 1 hour, cells were washed with FACS buffer and fixed with 50 ul/well of 2% PFA (paraformaldehyde) for 20 minutes. Cells were then washed with FACS buffer again and read on Cytek flow cytometer. FACS data analysis was done by Flowjo software to identifymonocytes, B cells, CD4+ T cells, CD8+ T cells, NK cells and Dendritic cells and their activation status. Data from Flowjo was exported and plotted using non-linear regression analysis, log (agonist/inhibitor) vs. response, variable slope, 4-parameter fit equation in GraphPad Prism. […]

[1] = system: TROP2 negative NCI-H460 cells; assay: NCI-H460/PBMC co-culture: cancer cell count; conditions: Table 10
Method: as §1, §2

[2] = system: TROP2 positive NCI-H292 Cells; assay: Cytokine release from cancer cells (MSD); conditions: 120 hours; for EC50: Homo sapiens
Method: The cell supernatant was collected and IP-10 and IL-6 released in the cell culture medium was measured using Streptavidin single spot 96 well plates, compatible human antibody pairs, and calibrating solutions commercially available from MesoScale Discovery. Raw data generated by the Meso Scale Discovery (MSD®) SQ120 plate reader was imported into MSD Discovery Workbench software. Unknown sample values were interpolated from standard curves by the software and imported into Graphpad Prism. Each cytokine level was fitted with non-linear regression analysis, using log (agonist) vs. response, variable slope, 4-parameter fit equation in GraphPad Prism.

NCI-H292 cells = assay: Immunogenic cell death markers (HMGB1 release, surface calreticulin); conditions: 48 hours; for EC50: Homo sapiens
Method: Immunogenic cell death elicited by the TROP2 ADC, iSAC, and exatecan were measured by cell surface translocate of calreticulin and release of HMGB1 in the cell culture supernatant. Briefly, TROP2 positive cell line NCI-H292 were seeded into a 96-well flat bottom plate 4 hours prior to the initialization of the assay. Test articles were formulated at a 2× starting concentration in cell culture medium, and samples were serial diluted (1:3) under sterile conditions and added onto the cells in duplicates. After incubation at 37° C. in a CO2 incubator for 48 hours, the cell supernatant was collected for measuring HMGB1 and the adherent cells were collected for calreticulin expression on the cell surface.
HMGB1 released in the supernatant was assessed via sandwich ELISA using mouse anti-human HMGB1 clone 2F6 (Sigma-Aldrich) as the capture, polyclonal rabbit anti-human HMGB1 (Abcam) as secondary, and polyclonal goat anti-rabbit IgG HRP as the detection antibody. The HMGB1 concentrations in the cell culture medium were calculated based a standard curve built on commercially available recombinant human HMGB1 (R&D Systems).
NCI-H292 cells were detached using Accutase (Innovative Cell Technologies) and viability was accessed using a 1:500 dilution of Zombie NIR viability dye. […] Surface calreticulin measures on the live cells were gathered using an Attune NXT Flow Cytometer (ThermoFisher Scientific) to obtain median fluorescence intensity values. All data were fitted with non-linear regression analysis, using log(agonist) vs. response, variable slope, 4 parameter fit equation using GraphPad Prism.

Q: What does the source list for `CC[C@@]1(O)C(=O)OCc2c1cc1n(c2=O)Cc2c-1nc1cc(F)c(C)c3c1c2[C@@H](N)CC3` [Exatecan, reference compound]?
A: IC50 (NCI-H441; Homo sapiens): 0.44 nM; Cancer Cell Count Span (Cell Count) (NCI-H441): 5,749 Cell Count; IC50 ([1]; Homo sapiens, NCI-H460/PBMC co-culture (TROP2 negative)): 0.38 nM; Cancer Cell Count Span (Cell Count) ([1]; NCI-H460/PBMC co-culture): 23,530 Cell Count; IL-6 Release Span [2]: 1410 pg/mL; IP-10 Release Span [2]: 203 pg/mL; EC50 ([2]; read-out: IL-6 Release EC50): 14.7 nM; EC50 ([2]; read-out: IP-10 Release EC50): 0.87 nM; Calreticulin Span (MFI) (NCI-H292 cells): 783 MFI; HMGB-1 Release Span (NCI-H292 cells): 55 ng/mL; EC50 (NCI-H292 cells; sandwich ELISA, read-out: HMGB-1 Release EC50): 2.08 nM; EC50 (NCI-H292 cells; surface calreticulin on live cells, read-out: Calreticulin EC50): 0.19 nM
